The values that follow come from patent US20130095493A1, “IDENTIFICATION OF THE GENE NOTCH3 AS A NOVEL BIOMARKER FOR HUMAN METASTATIC MELANOMA” (THE JOHNS HOPKINS UNIVERSITY, priority 2011, published 2013).

The structures appear in SMILES notation. “Also recorded” adds a separate entry of the source.

Common to all, as to format: cell-based, human
The test system of assay [1] is Notch signaling (4XCBF-1 Notch luciferase reporter in GFP-1205Lu co-cultured with RFP-HUVEC). Put plainly: Notch luciferase reporter co-culture (dual-luciferase assay). As to the method:
GFP-1205Lu was transfected using Lipofectamine 2000 with 4XCBF-1 Notch luciferase reporter (kindly provided by Dr. Diane Hayward, Johns Hopkins University) and Renilla control plasmid (2 μg total cDNA/well). Cells were transfected for 4 hr, then harvested by trypsinization and co-cultured with RFP-HUVEC at varying ratios for 24 hr in EGM-2. Cells were washed with PBS, snap-frozen, and stored at −80° C. Co-cultures were lysed using the Dual-Luciferase Reporter Assay System (Promega) and analyzed on a 1450 Microbeta plate reader (Perkin Elmer). The specificity of Notch signaling was verified using the pan-Notch inhibitor DAPT and 0.1% DMSO as a vehicle control.
The transcriptional activity of Notch is mediated by the CBF-1 promoter sequence upstream of target genes. CBF-1 recruits CSL transcriptional repressors which inactivate gene expression in the absence of NICD. […] Thus, by utilizing a four-tandem repeat of CBF-1 to drive luciferase expression during a transient transfection, canonical Notch signaling can be directly quantified by chemiluminescence activity in a target cell population. […]
To quantify Notch signaling within the model system, GFP-1205Lu was transiently transfected with 4XCBF-1 Notch luciferase reporter (PJH23A) and co-cultured with RFP-HUVEC for 24 hours. […]
For orientation: A reporter such as luciferase makes a cellular process visible.

Assay [2] deals with RFP-HUVEC networking phenotype in GFP-1205Lu:RFP-HUVEC co-culture. Put plainly: Melanoma-endothelial co-culture networking phenotype. The conditions noted are these: 10 μM DAPT vs 0.1% DMSO; 1:1 GFP-1205Lu:RFP-HUVEC co-culture. As to the method: For co-culture experiments, various GFP-labeled melanoma cell lines were co-cultured with RFP-HUVEC at a 1:1 ratio to 95% confluency in EGM-2. Melanoma cells grown alone were cultured in EGM-2 to control for medium effects. Cells were co-cultured for 48 hours before sorting by FACS into pure populations. The sorted cell populations were divided and stored at −80° C. for mRNA and protein analysis.
(§1) In previous investigations, we observed RFP-HUVEC communicating in a concerted fashion with metastatic melanoma cells to create a networking phenotype during 48 hrs of co-culture. It was thought that understanding the molecular determinants of this communication could lead to pharmacological targets for the prevention of melanoma-endothelial crosstalk in the clinical setting. To determine whether Notch signaling is involved in mediating the networking phenotype, GFP-1205Lu and RFP-HUVEC were co-cultured in 0.1% DMSO (vehicle) or 10 μM DAPT. These cells were also cultured alone in identical media to determine whether these conditions elicited any aberrant growth not attributable to co-culture.

In assay [3] the test system is GFP-1205Lu or RFP-HUVEC grown alone. Nature of the assay: Growth of cells cultured alone under DAPT. The conditions noted are these: 10 μM DAPT vs 0.1% DMSO.
From the text: as §1

With `C[C@H](NC(=O)Cc1cc(F)cc(F)c1)C(=O)N[C@H](C(=O)OC(C)(C)C)c1ccccc1` [DAPT], the “Inhibition of quantified Notch signaling” value in assay [1] (10 μM DAPT vs 0.1% DMSO vehicle) is “effectively inhibiting all quantified Notch signaling”. Moreover, in assay [1] (GFP-1205Lu with 4XCBF-1 reporter, RFP-HUVEC co-culture 24 hours, DMSO vehicle had no effect), the “Effect on co-culture stimulated Notch signaling (luciferase reporter)” value is reported as “completely abrogated the co-culture stimulated Notch signaling; also recorded: completely abrogated all Notch signaling observed”. Moreover, the “Effect on RFP-HUVEC networking phenotype in co-culture” value in assay [2] is “drastically affected; also recorded: RFP-HUVEC network disruption”. Further, the “Effect on growth of GFP-1205Lu or RFP-HUVEC grown alone” value in assay [3] is listed as “little effect; also recorded: no discernable difference”.
